Experimental data published in patent publication US11690854B2, “Methods of treating heavy menstrual bleeding” (priority 2018, dated 2023).
Entries after “also recorded” stand apart in the source; their conditions may differ.

Legend:
[1] = Pharmacokinetics in specific populations (renal, hepatic impairment); format: in vivo, human; conditions: for Elagolix exposures in severe hepatic impairment relative to normal hepatic function: severe hepatic impairment (Child-Pugh C)
From the text: The mean exposures are similar for women with moderate to severe or end stage renal disease (including women on dialysis) compared to women with normal renal function.
Elagolix exposures (Cmax and AUC) are similar between women with normal hepatic function and women with mild hepatic impairment. Elagolix exposures in women with moderate and severe hepatic impairment are approximately 3-fold and 7-fold, respectively, of exposures from women with normal hepatic function.

[2] = Pharmacokinetic properties of ELAGOLIX in healthy subjects; format: in vivo, human; conditions: for AUC: plasma; for AUC / Cmax: steady state, mean
[3] = target: efflux transporter P-glycoprotein (P-gp) (Homo sapiens, UniProt P08183); test: Drug interaction potential: P-gp
Sequence of efflux transporter P-glycoprotein (P-gp) (P08183 whole entry): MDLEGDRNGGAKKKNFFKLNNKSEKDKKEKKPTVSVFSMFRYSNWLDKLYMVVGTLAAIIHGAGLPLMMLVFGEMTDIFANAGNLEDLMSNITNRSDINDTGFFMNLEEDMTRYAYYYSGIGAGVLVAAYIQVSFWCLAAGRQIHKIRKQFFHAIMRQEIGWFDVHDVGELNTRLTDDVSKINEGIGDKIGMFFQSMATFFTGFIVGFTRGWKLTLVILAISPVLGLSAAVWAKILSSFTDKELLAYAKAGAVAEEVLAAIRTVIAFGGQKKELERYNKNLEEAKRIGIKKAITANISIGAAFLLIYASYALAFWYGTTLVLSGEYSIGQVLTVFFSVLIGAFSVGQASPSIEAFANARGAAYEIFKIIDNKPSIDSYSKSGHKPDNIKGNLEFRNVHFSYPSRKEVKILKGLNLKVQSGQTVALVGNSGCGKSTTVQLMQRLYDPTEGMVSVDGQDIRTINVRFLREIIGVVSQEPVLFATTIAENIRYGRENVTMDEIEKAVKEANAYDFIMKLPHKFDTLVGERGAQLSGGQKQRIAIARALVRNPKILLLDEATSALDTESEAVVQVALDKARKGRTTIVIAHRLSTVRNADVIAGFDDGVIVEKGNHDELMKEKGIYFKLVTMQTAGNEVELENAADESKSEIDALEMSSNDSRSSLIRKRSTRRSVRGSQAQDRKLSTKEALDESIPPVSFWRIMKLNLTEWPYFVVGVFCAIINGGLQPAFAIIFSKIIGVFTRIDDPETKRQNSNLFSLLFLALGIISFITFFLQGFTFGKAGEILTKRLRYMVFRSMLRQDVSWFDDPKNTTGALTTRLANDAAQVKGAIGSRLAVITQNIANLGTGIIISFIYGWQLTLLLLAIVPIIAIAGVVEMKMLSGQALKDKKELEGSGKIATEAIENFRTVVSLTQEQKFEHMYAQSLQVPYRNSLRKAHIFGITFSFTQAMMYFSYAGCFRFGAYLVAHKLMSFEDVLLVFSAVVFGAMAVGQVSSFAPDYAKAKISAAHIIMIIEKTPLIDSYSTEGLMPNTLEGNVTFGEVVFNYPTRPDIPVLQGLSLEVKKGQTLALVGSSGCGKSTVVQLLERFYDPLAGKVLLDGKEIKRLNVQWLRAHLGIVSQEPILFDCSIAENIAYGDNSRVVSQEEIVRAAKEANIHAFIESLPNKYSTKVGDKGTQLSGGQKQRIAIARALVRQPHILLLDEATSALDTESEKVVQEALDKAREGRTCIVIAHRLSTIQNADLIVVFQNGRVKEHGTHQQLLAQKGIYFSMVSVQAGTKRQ
Method: Elagolix is an inhibitor of efflux transporter P-glycoprotein (P-gp) at 200 mg BID or higher, such as 300 mg BID or 400 mg QD or 600 mg QD. Co-administration with ELAGOLIX 200 mg BID may increase plasma concentration of drugs that are substrates of P-gp.
(§1) Elagolix is a substrate of CYP3A, P-gp, and organic anion transporting polypeptide (OATP)1B1. Clinically meaningful interactions are not expected when ELAGOLIX is co-administered with drugs that inhibit CYP3A or P-gp.

[4] = system: premenopausal women with uterine fibroids; test: Phase 2a trial of Elagolix with or without add-back in uterine fibroids with heavy menstrual bleeding; format: in vivo, human; conditions: for Percent of subjects achieving composite bleeding endpoint (MBL <80 mL at Final Month and ≥50% reduction in MBL from baseline, AH method): last 28 days of treatment, placebo 30%; for Percent of subjects with ≥25% reduction in uterine volume: placebo 9%; for Percent of subjects with ≥25% reduction in fibroid volume: placebo 29%; for Average Total Blood Loss Measured by AH Method During Treatment: 3 months of treatment, placebo 569.7; for Average Total MBL in Days 66-95 Post-Baseline: placebo 190.3; for Average total MBL from days 6-35 post-baseline: placebo 190.5; for Average Total MBL from Days 36-65 Post-Baseline: placebo 194.6
Method: Methods for analyzing menstrual blood loss are known in the art and include, for example, the alkaline hematin method. The alkaline hematin method is based on the quantitation of menstrual blood collected on sanitary products (Hallberg L., Nilsoon L., Determination of Menstrual Blood Loss. Scand. J. Clin. Lab. Invest., 1964; 16:244-248). The method uses a strong alkaline solution to chemically convert the heme from bloodstained sanitary products to alkaline hematin, which is measured colorimetrically. When compared to a subject's serum hemoglobin (Hgb), the volume of blood loss in the menstrual products can be determined. […] The study involved the following six (6) cohorts: Cohort 1: […] Cohort 2: Elagolix 300 mg BID or placebo. Cohort 3: […] Cohort 4: […] Cohort 6: […] There are a number of efficacy endpoints, but a composite endpoint consisting of two bleeding assessments was used to assess one measure of efficacy. […] Eighty-five percent (85%), 97%, and 30% of subjects achieved the composite bleeding assessment endpoint in the 200 mg BID, 300 mg BID, and placebo groups, respectively (P<0.05 for 200 mg BID versus placebo in cohort 1, and 300 mg BID versus placebo in cohort 2). […] Quality of life (QoL) measures were also determined using the “Responsiveness of the uterine fibroid symptom and health-related quality of life questionnaire” (UFS-QOL) (Harding, Gale, Coyne Karin S., Thompson Christine L., Spies James B, United BioSource Corporation, 7101 Wisconsin Avenue, Suite 600, Bethesda, Md., 20814, USA, Health and Quality Life Outcomes, 2008, 6, page 99).

[5] = target: T1, organic anion transporting polypeptide (OATP)1B1 (Homo sapiens, UniProt Q9Y6L6); test: Drug interaction potential: OATP1B1
T1 sequence (Q9Y6L6 1-691): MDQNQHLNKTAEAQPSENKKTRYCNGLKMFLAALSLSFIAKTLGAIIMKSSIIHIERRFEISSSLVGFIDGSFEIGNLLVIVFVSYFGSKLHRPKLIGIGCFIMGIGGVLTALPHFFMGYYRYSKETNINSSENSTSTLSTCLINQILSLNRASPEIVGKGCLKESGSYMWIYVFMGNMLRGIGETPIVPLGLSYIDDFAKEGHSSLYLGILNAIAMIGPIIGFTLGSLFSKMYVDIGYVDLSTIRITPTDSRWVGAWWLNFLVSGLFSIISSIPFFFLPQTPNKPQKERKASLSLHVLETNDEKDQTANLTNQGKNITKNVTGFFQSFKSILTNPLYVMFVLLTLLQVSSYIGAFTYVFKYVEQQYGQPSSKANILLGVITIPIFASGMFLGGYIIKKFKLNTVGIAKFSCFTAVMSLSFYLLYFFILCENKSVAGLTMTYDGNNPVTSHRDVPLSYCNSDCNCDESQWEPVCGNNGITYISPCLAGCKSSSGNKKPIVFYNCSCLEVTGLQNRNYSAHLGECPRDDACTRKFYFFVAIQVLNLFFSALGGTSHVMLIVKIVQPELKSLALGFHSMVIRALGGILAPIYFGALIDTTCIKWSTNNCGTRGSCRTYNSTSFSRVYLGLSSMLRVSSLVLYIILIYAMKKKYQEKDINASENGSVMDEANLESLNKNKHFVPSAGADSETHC
Method: as §1
Co-administration of ELAGOLIX with drugs that inhibit OATP1B1 may increase elagolix plasma concentrations. Use of potent OATP1B1 inhibitors are not recommended with ELAGOLIX 200 mg BID regimen.

[6] = 100 BID, screening 276.4 mL per cycle
[7] = 200 BID, screening 287.4 mL per cycle
[8] = 300 BID, screening 224.8 mL per cycle
[9] = 400 QD, screening 220.3 mL per cycle
[10] = 600 QD, screening 228.7 mL per cycle

Structure (SMILES): COc1cccc(-c2c(C)n(Cc3c(F)cccc3C(F)(F)F)c(=O)n(C[C@H](NCCCC(=O)O)c3ccccc3)c2=O)c1F [Elagolix, 4-((R)-2-[5-(2-fluoro-3-methoxy-phenyl)-3-(2-fluoro-6-trifluoromethyl-benzyl)-4-methyl-2,6-dioxo-3,6-dihydro-2H-pyrimidin-1-yl]-1-phenyl-ethylamino)-butyric acid]
- Elagolix exposures in moderate hepatic impairment relative to normal hepatic function ([1]; moderate hepatic impairment (Child-Pugh B)): approximately 3 fold
- Elagolix exposures (Cmax and AUC) in renal impairment ([1]; moderate to severe or end stage renal disease vs normal renal function): not altered by renal impairment
- Elagolix exposures in severe hepatic impairment relative to normal hepatic function [1]: ~7 fold
- Elagolix exposures in severe hepatic impairment relative to normal hepatic function ([1]; listed as elagolix): approximately 7 fold
- Elagolix exposures (Cmax and AUC) in mild hepatic impairment ([1]; vs women with normal hepatic function): similar
- Tmax ([2]; healthy subjects): 1.0 h
- blood plasma ratio ([2]; human, blood and plasma): 0.6
- Major route of elimination ([2]; human, in vivo): Hepatic metabolism
- Metabolism, minor pathways ([2]; human, in vivo): glucuronosyltransferases (UGTs)
- half-life ([2]; human, in vivo, oral, healthy subjects, read-out: Terminal phase elimination half-life (t½)): 4 to 6 h
- Metabolism, minor pathways ([2]; human, in vivo, listed as ELAGOLIX): Minor pathways include: CYP2D6,; also recorded: CYP2C8, and uridine
- AUC ([2]; human, oral, 150 mg QD, τ 24 hours, % CV 31): 1.29 µg·h/mL
- AUC ([2]; human, oral, 200 mg BID, τ 12 hours, % CV 57): 1.73 µg·h/mL
- Metabolism ([2]; major pathway): CYP3A (major)
- Cmax ([2]; 150 mg QD, % CV 29): 0.574 µg/mL
- Cmax ([2]; 200 mg BID, % CV 68): 0.774 µg/mL
- Substrate of P-gp [3]: substrate
- Inhibition of P-gp ([3]; at 200 mg BID or higher, such as 300 mg BID or 400 mg QD or 600 mg QD): inhibitor
- Percent of subjects achieving composite bleeding endpoint (MBL <80 mL at Final Month and ≥50% reduction in MBL from baseline, AH method) ([4]; 200 mg BID): 85%
- Percent of subjects with ≥25% reduction in uterine volume ([4]; 200 mg BID): 50%
- Percent of subjects with ≥25% reduction in fibroid volume ([4]; 200 mg BID): 63%
- Inhibition of bleeding ([4]; 300 mg BID without add-back therapy): maximum inhibition of bleeding (most of women achieved amenorrhea)
- Women who reported an adverse event of hot flash ([4]; 300 mg BID, 400 mg QD and 600 mg QD without add-back): 50-62.5%
- Effect on uterine and fibroid volumes (FIG. 4) ([4]; 300 mg BID, compared with other Elagolix treatments): showed the strongest effects
- Percent of subjects achieving composite bleeding endpoint (MBL <80 mL at Final Month and ≥50% reduction in MBL from baseline, AH method) ([4]; 300 mg BID): 97%
- Percent of subjects with ≥25% reduction in uterine volume ([4]; 300 mg BID): 68%
- Percent of subjects with ≥25% reduction in fibroid volume ([4]; 300 mg BID): 55%
- Inhibition of bleeding compared with 300 mg BID ([4]; 400 mg QD and 600 mg QD): slightly less effective
- Average Total Blood Loss Measured by AH Method During Treatment ([4]; 100 BID, N = 26): 198.4 mL
- Average Total MBL in Days 66-95 Post-Baseline [4, 6]: 65.4 mL
- Average total MBL from days 6-35 post-baseline [4, 6]: 33.2 mL
- Average Total MBL from Days 36-65 Post-Baseline [4, 6]: 100.9 mL
- Average Total Blood Loss Measured by AH Method During Treatment ([4]; 200 BID, N = 28): 47.0 mL
- Average Total MBL in Days 66-95 Post-Baseline [4, 7]: 41.5 mL
- Average total MBL from days 6-35 post-baseline [4, 7]: 0 mL
- Average Total MBL from Days 36-65 Post-Baseline [4, 7]: 5.5 mL
- Average Total Blood Loss Measured by AH Method During Treatment ([4]; 300 BID, N = 26): 4.3 mL
- Average Total MBL in Days 66-95 Post-Baseline [4, 8]: 4.3 mL
- Average total MBL from days 6-35 post-baseline [4, 8]: 0 mL
- Average Total MBL from Days 36-65 Post-Baseline [4, 8]: 0 mL
- Average Total Blood Loss Measured by AH Method During Treatment ([4]; 400 QD, N = 26): 38.4 mL
- Average Total MBL in Days 66-95 Post-Baseline [4, 9]: 21.6 mL
- Average total MBL from days 6-35 post-baseline [4, 9]: 14.9 mL
- Average Total MBL from Days 36-65 Post-Baseline [4, 9]: 12.4 mL
- Average Total Blood Loss Measured by AH Method During Treatment ([4]; 600 QD, N = 24): 69.6 mL
- Average Total MBL in Days 66-95 Post-Baseline [4, 10]: 14.9 mL
- Average total MBL from days 6-35 post-baseline [4, 10]: 27.6 mL
- Average Total MBL from Days 36-65 Post-Baseline [4, 10]: 35.0 mL
- Substrate of OATP1B1 [5]: substrate
